Values belong to the compound of their own block, whether it stands above or below them. Numbered stars: 1 amine (or outer) side, 2 acyl side, 3 side chain; on linkers, the order of the positions; unused ones are H or OH. Bridge positions count the residues as written; N and C are the ends. Peptide text beside a SMILES is read from it. * marks the point of attachment. Biotin = O=C1N[C@H]2[C@H](CS[C@H]2CCCCC(=O)*)N1; C6F4(1,4-diyl) = Fc1c(F)c([*:2])c(F)c(F)c1[*:1]; PEG4 = NCCOCCOCCOCCOCCC(=O)O
Assays:
SUMO-25-109MDM2 [1] = target: T1, SUMO-25-109MDM2 (Homo sapiens, UniProt Q00987); test: In-solution competition assay by biolayer interferometry (BLI); assay type: binding; settings: supplementary binding validation; averaged over three measurements; ~30-100 nM SUMO-25-109MDM2 as given per peptide; read-out: Averaged KD, competition BLI assay
T1 construct: the ^25-109MDM2 gene was purchased from Addgene; made in house; host or cells: E. coli Rosetta (DE3) pLysS

Serum stability assay = assay type: in vitro ADME; settings: 10 µM peptide, 25% human serum in 1x PBS (v/v); 0 min-24 h; TCA precipitation; LC-MS EIC peak area; first-order fit; three experiments; read-out: Half-life (t1/2) in serum
Description: To assess the stability of stapled peptides, we performed a serum stability assay (Supplementary Fig. 6)[31],[36],[37]. Three stapled peptides were selected for assessment. […]
10 µM peptide were incubated with 25% human serum in buffer 1x PBS (v/v). At each time point (0 min, 5 min, 10 min, 30 min, 1 h, 2 h, 4 h, 8 h, 12h and 24 h), the mixture was sampled, treated with 10% trichloroacetic acid, and centrifuged at 12,000 g to remove serum proteins. The supernatant was acidified with 0.2% formic acid in water (v/v) and subjected to LC-MS analysis. The percentage of peptides (Y-axis) was calculated as the ratio of peak area in extracted ion chromatogram (EIC). Three experiments were carried out. The serum digestion curve was plotted using Prism8 software. The half-life of each peptide was calculated by fitted the digestion curve with the first order kinetic equation: ሾXሿ௧ ൌ ሾXሿ଴ ൈeି௞௧ , ሾXሿ is the remaining peptide percentage, t is the time in min. Half-life was calculated as tଵ/ଶ ൌሺln 2ሻ/k .

SUMO-25-109MDM2 [2] = target: T1, SUMO-25-109MDM2; test: Direct BLI binding assay of immobilised biotinylated peptides; settings: biotin-PEG4-peptide on streptavidin sensor, SUMO-25-109MDM2 4-500 nM, global 1:1 fit
Description: 6. Supplementary Methods 4: Binding validation by bio-layer interferometry 6.1 Methods for BLI assay
In vitro binding assay was performed using ForteBio Octet RED96 BLI system (Octet RED96). In a typical experiment, the streptavidin (SA) tips were dipped in 200 µL biotinylated- peptide solution (2.0 μM in PBS with 0.02% Tween 20 and 1 mg/mL BSA) for the loading step. The loaded tips were then dipped in the sample wells for association curves. Buffer-only condition were used as reference for background subtraction. After association, the tips were dipped in blocking buffer (1x PBS, 0.02% Tween 20, 1 mg/mL BSA) to obtain dissociation curve. The association and dissociation curves were fitted by the global fitting algorithm, under binding model 1:1 to obtain the binding response value (R) in nm.
Streptavidin sensors were soaked in blocking buffer for 5 min. After immobilizing the PEG4-biotinylated peptide (100 nM of Biotin-PEG4-peptide) onto streptavidin sensors, serial dilutions of SUMO-25-109MDM2 in blocking buffer were analyzed for binding (500 nM, 250 nM, 125 nM, 63nM, 32 nM, 16 nM, 8 nM and 4 nM. The response was recorded at equilibrium after 2 min.

14-3-3σ = settings: previously characterized binder; cited from earlier work
Source text: The epitope used for 12ca5 has the sequence […]; the previously characterized protein 14-3-3σ binder 14-3-3.6 was used for 14-3-3σ and its sequence can be found in Fig. 6b. A beta-alanine spacer was used between the library construct and the C-terminal lysine. […]

antibody 12ca5 = settings: stated for the epitope without method; ref not given; cited from earlier work
Source text: The epitope used for 12ca5 has the sequence […]; the previously characterized protein 14-3-3σ binder 14-3-3.6 was used for 14-3-3σ and its sequence can be found in Fig. 6b. A beta-alanine spacer was used between the library construct and the C-terminal lysine.

- Kd (SUMO-25-109MDM2 [1]): 4.4 ± 1.9 nM
- half-life at 10 µM (Serum stability assay): 26 min
Compound: CC(C)C[C@H](NC(=O)[C@H](C)NC(=O)[C@@H]1CSc2c(F)c(F)c(c(F)c2F)SC[C@H](NC(=O)[C@H](Cc2ccccc2)NC(=O)[C@H](CO)NC(=O)[C@H](C)N)C(=O)N[C@@H](CCC(=O)O)C(=O)N[C@@H](Cc2ccc(O)cc2)C(=O)N[C@@H](Cc2c[nH]c3ccccc23)C(=O)N1)C(=O)N[C@@H](C)C(=O)N[C@@H](C)C(N)=O [Peptide 36] (H-ASFCEYWCALAA-NH2; linker 4-8 via C6F4(1,4-diyl))

Compound: CC(C)C[C@H](NC(=O)[C@H](CC(N)=O)NC(=O)[C@H](Cc1c[nH]c2ccccc12)NC(=O)[C@H](Cc1ccc(O)cc1)NC(=O)[C@H](CCC(=O)O)NC(=O)[C@H](C)NC(=O)[C@H](Cc1ccccc1)NC(=O)[C@H](CO)NC(=O)[C@@H](N)[C@@H](C)O)C(=O)N[C@@H](CC(C)C)C(=O)N[C@@H](CO)C(=O)N1CCC[C@H]1C(N)=O [PMI, reference compound] (H-TSFAEYWNLLSP-NH2)
- half-life at 10 µM (Serum stability assay): 2.2 min

- koff (SUMO-25-109MDM2 [2]): 0.00981 s⁻¹
- kon (SUMO-25-109MDM2 [2]): 633000 M⁻¹ s⁻¹
Compound: CC(C)C[C@H](NC(=O)[C@H](C)NC(=O)[C@H](C)NC(=O)[C@H](Cc1c[nH]c2ccccc12)NC(=O)[C@H](Cc1ccc(O)cc1)NC(=O)[C@H](C)NC(=O)[C@H](C)NC(=O)[C@H](Cc1ccccc1)NC(=O)[C@H](C)NC(=O)[C@@H](NC(=O)CCOCCOCCOCCOCCNC(=O)CCCC[C@@H]1SC[C@@H]2NC(=O)N[C@@H]21)[C@@H](C)O)C(=O)N[C@@H](C)C(=O)N[C@@H](C)C(=O)N[C@@H](CCCCN)C(N)=O [Peptide 32-biotin] ({Biotin-PEG4}-TAFAAYWAALAAK-NH2)

- half-life at 10 µM (Serum stability assay): 3.9 min
Compound: CC(C)C[C@H](NC(=O)[C@H](C)NC(=O)[C@H](C)NC(=O)[C@H](Cc1c[nH]c2ccccc12)NC(=O)[C@H](Cc1ccc(O)cc1)NC(=O)[C@H](C)NC(=O)[C@H](C)NC(=O)[C@H](Cc1ccccc1)NC(=O)[C@H](C)NC(=O)[C@@H](N)[C@@H](C)O)C(=O)N[C@@H](C)C(=O)N[C@@H](C)C(=O)N[C@@H](CCCCN)C(N)=O [Peptide 32] (H-TAFAAYWAALAAK-NH2)

- half-life at 10 µM (Serum stability assay): 5.1 min
Compound: CC(C)C[C@H](NC(=O)[C@H](C)NC(=O)[C@H](C)NC(=O)[C@H](Cc1c[nH]c2ccccc12)NC(=O)[C@H](Cc1ccc(O)cc1)NC(=O)[C@H](C)NC(=O)[C@H](C)NC(=O)[C@H](Cc1ccccc1)NC(=O)[C@H](C)NC(=O)[C@H](C)N)C(=O)N[C@@H](C)C(=O)N[C@@H](C)C(=O)N[C@@H](CCCCN)C(N)=O [Peptide 34] (H-AAFAAYWAALAAK-NH2)

- Kd (SUMO-25-109MDM2 [1]): 3.3 ± 2.1 nM
- half-life at 10 µM (Serum stability assay): 25 min
Compound: CC(C)C[C@@H]1NC(=O)[C@H](C)NC(=O)[C@@H](NC(=O)[C@H](Cc2c[nH]c3ccccc23)NC(=O)[C@H](Cc2ccc(O)cc2)NC(=O)[C@H](CCC(=O)O)NC(=O)[C@H](C)NC(=O)[C@H](Cc2ccccc2)NC(=O)[C@H](CO)NC(=O)[C@H](C)N)CSc2c(F)c(F)c(c(F)c2F)SC[C@@H](C(N)=O)NC(=O)[C@H](C)NC1=O [Peptide 39] (H-ASFAEYWCALAC-NH2; linker 8-12 via C6F4(1,4-diyl))

Compound: Cha-Cha-β-Ser-Orn-pSer-Nph-β-Ser-β-Ser-Nph [Peptide 14-3-3.6]
- Kd (14-3-3σ): 3 nM

- koff (SUMO-25-109MDM2 [2]): 0.0107 s⁻¹
- kon (SUMO-25-109MDM2 [2]): 170000 M⁻¹ s⁻¹
Compound: CC(C)C[C@H](NC(=O)[C@H](C)NC(=O)[C@H](C)NC(=O)[C@H](Cc1c[nH]c2ccccc12)NC(=O)[C@H](Cc1ccc(O)cc1)NC(=O)[C@H](C)NC(=O)[C@H](C)NC(=O)[C@H](Cc1ccccc1)NC(=O)[C@H](CO)NC(=O)[C@H](C)NC(=O)CCOCCOCCOCCOCCNC(=O)CCCC[C@@H]1SC[C@@H]2NC(=O)N[C@@H]21)C(=O)N[C@@H](C)C(=O)N[C@@H](C)C(=O)N[C@@H](CCCCN)C(N)=O [Peptide 33-biotin] ({Biotin-PEG4}-ASFAAYWAALAAK-NH2)

- koff (SUMO-25-109MDM2 [2]): 0.0102 s⁻¹
- kon (SUMO-25-109MDM2 [2]): 824000 M⁻¹ s⁻¹
Compound: CC(C)C[C@H](NC(=O)[C@H](C)NC(=O)[C@H](C)NC(=O)[C@H](Cc1c[nH]c2ccccc12)NC(=O)[C@H](Cc1ccc(O)cc1)NC(=O)[C@H](C)NC(=O)[C@H](C)NC(=O)[C@H](Cc1ccccc1)NC(=O)[C@H](C)NC(=O)[C@H](C)NC(=O)CCOCCOCCOCCOCCNC(=O)CCCC[C@@H]1SC[C@@H]2NC(=O)N[C@@H]21)C(=O)N[C@@H](C)C(=O)N[C@@H](C)C(=O)N[C@@H](CCCCN)C(N)=O [Peptide 34-biotin] ({Biotin-PEG4}-AAFAAYWAALAAK-NH2)

Compound: YPYDVPDYA
- Kd (antibody 12ca5): 4 nM

- Kd (SUMO-25-109MDM2 [1]): 0.4 ± 0.3 nM
- half-life at 10 µM (Serum stability assay): 27 min
Compound: CC(C)C[C@H](NC(=O)[C@@H]1CSc2c(F)c(F)c(c(F)c2F)SC[C@H](NC(=O)[C@H](C)NC(=O)[C@H](Cc2ccccc2)NC(=O)[C@H](CO)NC(=O)[C@H](C)N)C(=O)N[C@@H](Cc2ccc(O)cc2)C(=O)N[C@@H](Cc2c[nH]c3ccccc23)C(=O)N[C@@H](C)C(=O)N1)C(=O)N[C@@H](CO)C(=O)N[C@@H](C)C(N)=O [Peptide 38] (H-ASFACYWACLSA-NH2; linker 5-9 via C6F4(1,4-diyl))

— PMC9814900 (Communications Chemistry, 2022)
